Test results: patent US20210284638A1 (Saint Louis University, priority 2018, published 2021)
Where a name gives a salt, the structure may show the parent alone.

Experiments:
Format in all cases: binding
[1] = target: T1, Recombinant human integrin αvβ1 (Homo sapiens, UniProt P05556+P06756); test: Solid Phase Receptor Assay (SPRA) for αVβ1 function; conditions: plate-bound human fibronectin
T1 construct: purchased R&D Systems 6579-AV

[2] = target: T2, Recombinant human integrin αVβ5 (Homo sapiens, UniProt P06756+P18084); test: Solid Phase Receptor Assay (SPRA) for αVβ5 function; conditions: plate-bound human vitronectin
T2 construct: purchased R&D Systems 2528-AV
T2 sequence (P06756 31-992 limits assumed): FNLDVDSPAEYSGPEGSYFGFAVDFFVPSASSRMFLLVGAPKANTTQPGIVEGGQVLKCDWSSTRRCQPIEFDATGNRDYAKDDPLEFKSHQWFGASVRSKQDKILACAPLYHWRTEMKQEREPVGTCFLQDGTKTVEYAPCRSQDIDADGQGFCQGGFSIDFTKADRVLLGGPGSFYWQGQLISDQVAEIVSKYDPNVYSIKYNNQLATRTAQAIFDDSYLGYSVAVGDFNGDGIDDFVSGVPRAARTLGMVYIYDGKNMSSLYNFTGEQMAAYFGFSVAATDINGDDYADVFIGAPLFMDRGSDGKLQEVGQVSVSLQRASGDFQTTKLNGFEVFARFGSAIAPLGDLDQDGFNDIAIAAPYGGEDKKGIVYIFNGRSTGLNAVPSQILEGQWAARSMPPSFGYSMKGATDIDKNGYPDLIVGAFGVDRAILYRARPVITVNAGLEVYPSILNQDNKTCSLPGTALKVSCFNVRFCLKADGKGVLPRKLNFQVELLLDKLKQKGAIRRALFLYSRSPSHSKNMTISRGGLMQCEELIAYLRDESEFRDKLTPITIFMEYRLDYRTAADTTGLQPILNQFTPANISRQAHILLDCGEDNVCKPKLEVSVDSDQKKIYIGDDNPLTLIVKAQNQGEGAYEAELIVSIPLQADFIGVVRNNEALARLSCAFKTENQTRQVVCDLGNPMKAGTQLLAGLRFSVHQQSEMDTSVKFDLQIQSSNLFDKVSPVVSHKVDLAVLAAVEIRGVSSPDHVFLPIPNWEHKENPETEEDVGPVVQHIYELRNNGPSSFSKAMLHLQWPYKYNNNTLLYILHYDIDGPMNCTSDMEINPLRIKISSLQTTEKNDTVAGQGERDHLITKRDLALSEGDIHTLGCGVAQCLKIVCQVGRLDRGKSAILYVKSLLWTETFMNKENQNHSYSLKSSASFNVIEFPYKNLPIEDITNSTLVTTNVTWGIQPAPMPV
T2 sequence (P18084 24-719 limits assumed): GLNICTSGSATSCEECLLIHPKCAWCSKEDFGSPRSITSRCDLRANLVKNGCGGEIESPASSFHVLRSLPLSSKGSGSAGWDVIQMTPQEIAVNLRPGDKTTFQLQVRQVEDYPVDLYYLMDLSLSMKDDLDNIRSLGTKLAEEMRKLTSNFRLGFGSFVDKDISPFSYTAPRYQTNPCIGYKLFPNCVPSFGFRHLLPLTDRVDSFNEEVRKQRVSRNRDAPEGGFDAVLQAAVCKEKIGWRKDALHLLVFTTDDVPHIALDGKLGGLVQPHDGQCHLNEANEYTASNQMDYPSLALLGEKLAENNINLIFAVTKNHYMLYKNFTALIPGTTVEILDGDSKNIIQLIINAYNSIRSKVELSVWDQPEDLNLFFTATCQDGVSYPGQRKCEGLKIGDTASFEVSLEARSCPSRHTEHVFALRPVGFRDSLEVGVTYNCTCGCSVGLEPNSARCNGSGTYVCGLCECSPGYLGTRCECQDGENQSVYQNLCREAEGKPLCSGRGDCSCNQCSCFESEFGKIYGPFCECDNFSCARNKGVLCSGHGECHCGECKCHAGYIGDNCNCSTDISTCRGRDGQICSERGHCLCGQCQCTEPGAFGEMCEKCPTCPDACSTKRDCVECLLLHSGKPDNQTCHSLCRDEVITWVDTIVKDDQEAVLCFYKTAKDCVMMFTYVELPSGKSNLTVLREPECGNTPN

[3] = target: T3, Recombinant human integrin αVβ6 (Homo sapiens, UniProt P06756+P18564); test: Solid Phase Receptor Assay (SPRA) for αVβ6 function; conditions: plate-bound human LAP
T3 construct: purchased R&D Systems 3817-AV
T3 sequence (P06756 31-992 limits assumed): as the sequence (P06756 31-992 limits assumed) above
T3 sequence (P18564 22-707 limits assumed): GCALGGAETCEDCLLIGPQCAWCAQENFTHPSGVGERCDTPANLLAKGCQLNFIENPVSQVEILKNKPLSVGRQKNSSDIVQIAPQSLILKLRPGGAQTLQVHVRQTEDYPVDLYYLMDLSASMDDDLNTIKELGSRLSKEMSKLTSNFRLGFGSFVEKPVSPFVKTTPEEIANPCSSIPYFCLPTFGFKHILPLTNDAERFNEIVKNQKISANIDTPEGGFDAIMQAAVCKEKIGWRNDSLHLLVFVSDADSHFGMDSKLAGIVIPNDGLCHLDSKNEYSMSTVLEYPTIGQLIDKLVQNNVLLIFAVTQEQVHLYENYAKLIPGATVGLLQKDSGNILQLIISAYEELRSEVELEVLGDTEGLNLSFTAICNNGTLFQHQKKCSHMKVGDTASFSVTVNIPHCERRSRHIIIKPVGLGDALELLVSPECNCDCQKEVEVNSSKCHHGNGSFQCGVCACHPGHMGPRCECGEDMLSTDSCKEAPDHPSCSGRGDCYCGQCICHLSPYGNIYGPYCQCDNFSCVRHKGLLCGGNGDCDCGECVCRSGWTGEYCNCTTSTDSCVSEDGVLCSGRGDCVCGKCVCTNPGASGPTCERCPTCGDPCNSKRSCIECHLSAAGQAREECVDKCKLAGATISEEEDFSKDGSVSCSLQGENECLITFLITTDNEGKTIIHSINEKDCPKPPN

[4] = target: T4, Recombinant human integrin α5β1 (Homo sapiens, UniProt P05556+P08648); test: Solid Phase Receptor Assay (SPRA) for α5β1 function; conditions: plate-bound human fibronectin
T4 construct: purchased R&D Systems 3230-A5
T4 sequence (P08648 42-995 limits assumed): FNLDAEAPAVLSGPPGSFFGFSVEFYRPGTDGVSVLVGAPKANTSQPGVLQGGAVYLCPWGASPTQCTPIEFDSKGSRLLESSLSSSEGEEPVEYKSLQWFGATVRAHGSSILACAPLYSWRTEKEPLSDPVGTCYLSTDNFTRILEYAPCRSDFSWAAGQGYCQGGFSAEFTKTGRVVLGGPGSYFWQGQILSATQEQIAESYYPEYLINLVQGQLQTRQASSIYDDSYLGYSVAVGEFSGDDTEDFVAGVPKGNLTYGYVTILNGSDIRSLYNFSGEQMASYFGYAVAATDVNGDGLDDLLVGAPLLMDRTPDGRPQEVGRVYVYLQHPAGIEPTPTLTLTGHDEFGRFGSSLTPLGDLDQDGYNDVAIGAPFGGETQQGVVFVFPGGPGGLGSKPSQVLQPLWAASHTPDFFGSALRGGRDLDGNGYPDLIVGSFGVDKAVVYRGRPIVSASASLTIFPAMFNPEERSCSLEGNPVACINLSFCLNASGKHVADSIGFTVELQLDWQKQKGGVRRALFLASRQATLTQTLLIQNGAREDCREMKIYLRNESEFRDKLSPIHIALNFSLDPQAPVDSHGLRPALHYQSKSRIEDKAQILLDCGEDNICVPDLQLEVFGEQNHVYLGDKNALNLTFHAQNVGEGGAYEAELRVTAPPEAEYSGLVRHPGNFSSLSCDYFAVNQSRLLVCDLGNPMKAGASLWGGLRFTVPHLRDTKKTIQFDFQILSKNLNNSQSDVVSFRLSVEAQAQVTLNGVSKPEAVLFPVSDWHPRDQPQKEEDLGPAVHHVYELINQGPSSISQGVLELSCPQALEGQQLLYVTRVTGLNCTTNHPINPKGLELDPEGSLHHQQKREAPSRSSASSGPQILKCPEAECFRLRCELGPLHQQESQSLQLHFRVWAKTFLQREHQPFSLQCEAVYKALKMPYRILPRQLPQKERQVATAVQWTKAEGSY
T4 sequence (P05556 21-728 limits assumed): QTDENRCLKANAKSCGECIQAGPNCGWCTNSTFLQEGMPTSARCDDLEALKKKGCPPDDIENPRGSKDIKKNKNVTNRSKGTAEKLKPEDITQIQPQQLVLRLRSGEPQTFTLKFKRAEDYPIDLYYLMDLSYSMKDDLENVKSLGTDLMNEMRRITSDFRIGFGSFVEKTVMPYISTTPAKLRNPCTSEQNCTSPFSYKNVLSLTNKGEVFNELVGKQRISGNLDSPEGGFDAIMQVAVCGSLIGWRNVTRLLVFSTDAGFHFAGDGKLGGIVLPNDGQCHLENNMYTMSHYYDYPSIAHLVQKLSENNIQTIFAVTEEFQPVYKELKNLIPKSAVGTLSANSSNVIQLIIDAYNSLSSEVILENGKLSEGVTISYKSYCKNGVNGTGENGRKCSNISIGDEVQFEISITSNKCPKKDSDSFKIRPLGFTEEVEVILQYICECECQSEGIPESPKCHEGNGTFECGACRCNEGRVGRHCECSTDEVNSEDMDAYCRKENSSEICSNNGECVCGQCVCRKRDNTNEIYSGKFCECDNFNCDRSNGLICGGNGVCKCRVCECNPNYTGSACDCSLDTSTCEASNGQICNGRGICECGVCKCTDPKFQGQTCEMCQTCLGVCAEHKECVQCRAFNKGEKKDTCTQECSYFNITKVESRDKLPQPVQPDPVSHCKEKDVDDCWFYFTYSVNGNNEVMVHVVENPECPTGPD

T1 sequence (P06756 31-992 limits assumed): as the sequence (P06756 31-992 limits assumed) above
T1 sequence (P05556 21-728 limits assumed): as the sequence (P05556 21-728 limits assumed) above

SMILES	IC50 [1] [nM]	IC50 [2] [nM]	IC50 [3] [nM]	IC50 [4] [nM]
COc1ccc(C2=CCOCC2)cc1[C@@H](CC(=O)O)Cc1csc(CCCc2ccc3c(n2)NCCC3)n1 [Example 37B, (R)-3-(5-(3,6-dihydro-2H-pyran-4-yl)-2-methoxyphenyl)-4-(2-(3-(5,6,7,8-tetrahydro-1,8-naphthyridin-2-yl)propyl)thiazol-4-yl)butanoic acid trifluoroacetate]	190	62	3000	2800
Cc1cc(C)n(-c2cccc(C(CC(=O)O)Cc3csc(CCc4ccc5c(n4)NCCC5)n3)c2)n1 (centres unmarked) [Example 38, 3-(3-(3,5-dimethyl-1H-pyrazol-1-yl)phenyl)-4-(2-(2-(5,6,7,8-tetrahydro-1,8-naphthyridin-2-yl)ethyl)thiazol-4-yl)butanoic acid]	15	0.7	240	420
CC(C)(C)c1cc(C(CC(=O)O)Cc2cc(OCCc3ccc4c(n3)NCCC4)n(CC(F)(F)F)n2)cc(C(C)(C)C)c1 (centres unmarked) [Example 40, 3-(3,5-di-tert-butylphenyl)-4-(5-(2-(5,6,7,8-tetrahydro-1,8-naphthyridin-2-yl)ethoxy)-1-(2,2,2-trifluoroethyl)-1H-pyrazol-3-yl)butanoic acid trifluoroacetate]	3	180	790	6
Cn1nc(CC(CC(=O)O)c2cc(C(C)(C)C#N)cc(C(C)(C)C#N)c2)cc1OCCc1ccc2c(n1)NCCC2 (centres unmarked) [Example 41, 3-(3,5-bis(2-cyanopropan-2-yl)phenyl)-4-(1-methyl-5-(2-(5,6,7,8-tetrahydro-1,8-naphthyridin-2-yl)ethoxy)-1H-pyrazol-3-yl)butanoic acid trifluoroacetate]	1	5	37	0.3
COc1ccc(C2=CCOCC2)cc1C(CC(=O)O)Cc1cc(OCCc2ccc3c(n2)NCCC3)n(C)n1 (centres unmarked) [Example 42]	2	14	17	10
COc1ccc(C2CCOCC2)cc1C(CC(=O)O)Cc1csc(CCCc2ccc3c(n2)NCCC3)n1 (centres unmarked) [Example 43, 3-(2-methoxy-5-(tetrahydro-2H-pyran-4-yl)phenyl)-4-(2-(3-(5,6,7,8-tetrahydro-1,8-naphthyridin-2-yl)propyl)thiazol-4-yl)butanoic acid]	3	61	95	65
COc1ccc(C(CC(=O)O)Cc2cc(OCCc3ccc4c(n3)NCCC4)n(C)n2)cc1F (centres unmarked) [Example 44, 3-(3-fluoro-4-methoxyphenyl)-4-(1-methyl-5-(2-(5,6,7,8-tetrahydro-1,8-naphthyridin-2-yl)ethoxy)-1H-pyrazol-3-yl)butanoic acid]	3.2	0.22	44	47
COCC1(c2ccc(OC)c(C(CC(=O)O)Cc3cc(OCCc4ccc5c(n4)NCCC5)n(C)n3)c2)CCOCC1 (centres unmarked) [Example 45, 3-(2-methoxy-5-(4-(methoxymethyl)tetrahydro-2H-pyran-4-yl)phenyl)-4-(1-methyl-5-(2-(5,6,7,8-tetrahydro-1,8-naphthyridin-2-yl)ethoxy)-1H-pyrazol-3-yl)butanoic acid]	2.2	1200	4100	13
COc1ccc(C2CCOCC2)cc1C(CC(=O)O)Cc1cc(OCCc2ccc3c(n2)NCCC3)n(C)n1 (centres unmarked) [Example 46, 3-(2-methoxy-5-(tetrahydro-2H-pyran-4-yl)phenyl)-4-(1-methyl-5-(2-(5,6,7,8-tetrahydro-1,8-naphthyridin-2-yl)ethoxy)-1H-pyrazol-3-yl)butanoic acid]	2.8	87	260	16
Cn1nc(C[C@@H](CC(=O)O)c2cc3c(c(C(C)(C)C)c2)OCO3)cc1OCCc1ccc2c(n1)NCCC2 [Example 47]	0.92	0.067	15	6.2
COCC1(c2ccc(OC)c([C@H](CC(=O)O)Cc3cc(OCCc4ccc5c(n4)NCCC5)n(C)n3)c2)CCOCC1 [Example 48, (S)-3-(2-methoxy-5-(4-(methoxymethyl)tetrahydro-2H-pyran-4-yl)phenyl)-4-(1-methyl-5-(2-(5,6,7,8-tetrahydro-1,8-naphthyridin-2-yl)ethoxy)-1H-pyrazol-3-yl)butanoic acid]	2.4	770	2800	9.7
